{
  "source": "patent US10654890B2",
  "about": "“Cyclic peptide derivative, method for preparing same and composition thereof” (priority 2014, dated 2020)",
  "key": {"[1]": {"system": "human liver cancer cells (HepG2)", "assay": "Cell proliferation test, human liver cancer cells", "format": "cell-based", "details": "2.5 μM and 25 μM, FIG. 10", "method": "(§1) To see whether or not the astrocyte proliferation accelerating activity of the cyclic peptide derivative is a specific proliferative activity that is limited only to an astrocyte or it is based on a common cell proliferative activity, investigations were made by using normal human dermal fibroblasts (NHDF), human liver cancer cells (HepG2), and human leukemia cells (K562).\n(§2) Seeding of each cell on a 96 well plate was carried out by adding 100 μl of a cell suspension in which normal human dermal fibroblasts are prepared at 2.5×10^4 cells/ml or human liver cancer cells and human leukemia cells are prepared at 5×10^4 cells/ml. Since the cyclic peptide derivative is added after dissolving it in PBS (−), only PBS (−) was added as a control."}, "[2]": {"system": "normal human dermal fibroblasts (NHDF)", "assay": "Cell proliferation test, normal human dermal fibroblasts", "format": "cell-based", "method": "as §1, §2"}, "[3]": {"assay": "Water solubility", "format": "physicochemical"}, "[4]": {"system": "NGF gene", "assay": "NGF gene expression in culture astrocyte (real time PCR)", "format": "cell-based, mouse", "details": "25 μM; from 8 hours to 24 hours after the addition; p<0.05 vs before the addition; calibrated to GAPDH", "method": "By adding the cyclic peptide derivative of 25 μM to an astrocyte of the secondary subculture, the influence on expression of the gene of NGF, GDNF, VFGF-A, BDNF, and VGF as a representative neurotrophic factor was determined over time.\nExcept that a cell suspension of an astrocyte of the secondary subculture was prepared to have cell concentration of 3×10^5 cells/ml and the time for exposing the astrocyte to the above 25 μM cyclic peptide derivative was set at 0, 1, 2, 4, 8, 12, and 24 hours, the astrocyte was cultured in the same order as above <6>. As a control group, LG-D-MEM (0% FBS) not added with any cyclic peptide derivative was used.\nEach astrocyte which has been exposed to the cyclic peptide derivative during each time described above was collected, and then, by using RNeasy Mini Kit (QIAGEN), extraction and purification of total RNA were carried out. The extracted total RNA was quantified by using Nano Photometer (IMPLEN). For the reverse transcription reaction, cDNA was synthesized by reacting 500 ng of total RNA with PrimeScript RT Master Mix (TaKaRa) at 37° C. for 15 minutes using GeneAmp PCR System 9600 (PERKIN ELMER), and the reaction was terminated by heating for 5 seconds at 85° C. […]"}, "[5]": {"system": "senescence-accelerated model mouse SAMP8", "assay": "Damaged area ratio of body hair surface by scanning probe microscope", "format": "in vivo", "source_text": "As for the apparatus, tapping mode scanning probe microscope (SPM: SPA400, Hitachi High-Tech Science Corporation) was used.\nAs a sample, body hair in head and neck part of a mouse was collected by plucking from the origin, and the observation was made by using the tapping mode scanning probe microscope described above."}},
  "data": [
    {"smiles": "CCC1(C)Oc2cc(ccc2O)C(O)C(NC)C(=O)NC(C(C)C)C(=O)NC1C(=O)NC(CCC(=O)O)C(=O)O", "note": "(centres unmarked) [cyclic peptide derivative]", "values": [
      {"measurement": "inhibitory activity on cell proliferation", "setting": "[1]", "value": "a strong inhibitory activity on cell proliferation was observed"},
      {"measurement": "cytotoxicity for normal cells", "setting": "[2]", "value": "low"},
      {"measurement": "cell proliferation rate", "setting": "[2]; 25 μM", "value": "~80", "unit": "%"},
      {"measurement": "proliferation of NHDF cells compared to the group with no addition", "setting": "[2]; 25 μM", "value": "inhibited in a significant sense"},
      {"measurement": "water solubility", "setting": "[3]", "value": "water soluble"},
      {"measurement": "expression of the gene of NGF", "setting": "[4]", "value": "increased"},
      {"measurement": "damage ratio on a surface of mouse body hair", "setting": "[5]; SAMP8, oral 2.5 μg/kg/day", "value": "lowered to the same level as those of a mouse with normal aging"},
      {"measurement": "damage ratio on a surface of mouse body hair", "setting": "[5]; SAMP8, oral 25 μg/kg/day", "value": "lowered to the same level as those of a mouse with normal aging"}
    ]}
  ]
}
